Laboratory results from ChEMBL document CHEMBL4419178, “Yap1 inhibitors that target the interaction of yap1 with oct4” (2018).
Activity calls are given as the source filed them. The rule behind the calls is not given here.

Key:
[1] = test system: NCI-H146; assay: Effect on expression of Oct4 mRNA expression in human NCI-H146 cells at 5 to 10 uM incubated for 72 hrs by RT-PCR method; format: cell-based; settings: nci-h146, 72 h
[2] = molecular target: Transcriptional coactivator YAP1 (Homo sapiens) (UniProt P46937); assay: Inhibition of YAP1 in human NCI-H1703 cells assessed as suppression of fibronectin mRNA expression at 5 to 10 uM incubated for 72 hrs by RT-PCR method; format: cell-based
Chain of Transcriptional coactivator YAP1 (Homo sapiens) (P46937 whole entry): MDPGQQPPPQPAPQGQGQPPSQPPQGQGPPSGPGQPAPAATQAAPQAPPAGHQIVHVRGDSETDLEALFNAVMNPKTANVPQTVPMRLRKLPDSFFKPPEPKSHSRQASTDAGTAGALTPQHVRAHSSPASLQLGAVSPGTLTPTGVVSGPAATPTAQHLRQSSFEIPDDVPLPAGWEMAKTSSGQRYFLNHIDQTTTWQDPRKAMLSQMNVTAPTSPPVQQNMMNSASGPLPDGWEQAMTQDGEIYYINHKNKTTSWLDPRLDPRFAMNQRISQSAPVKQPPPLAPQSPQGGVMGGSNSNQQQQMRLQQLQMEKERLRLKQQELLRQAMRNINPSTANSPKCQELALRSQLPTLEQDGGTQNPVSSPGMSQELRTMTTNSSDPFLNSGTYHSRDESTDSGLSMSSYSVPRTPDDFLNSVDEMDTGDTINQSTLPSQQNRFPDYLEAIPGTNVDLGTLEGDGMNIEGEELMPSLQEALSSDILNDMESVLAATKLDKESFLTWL

[3] = molecular target: Transcriptional coactivator YAP1 (Homo sapiens) (UniProt P46937); assay: Inhibition of YAP1 in human NCI-H1703 cells assessed as suppression of PD-L1 mRNA expression at 5 to 10 uM incubated for 72 hrs by RT-PCR method; format: cell-based
[4] = test system: NCI-H1703; assay: Inhibition of YAP1/TEAD2 interaction in human NCI-H1703 cells assessed as suppression of CTGF mRNA expression at 5 to 10 uM incubated for 72 hrs by RT-PCR method; format: cell-based
[5] = molecular target: Transcriptional coactivator YAP1 (Homo sapiens) (UniProt P46937); assay: Inhibition of YAP1 in human NCI-H146 cells assessed as suppression of PDK2 mRNA expression at 5 to 10 uM incubated for 72 hrs by RT-PCR method; format: cell-based
[6] = test system: NCI-H146; assay: Effect on expression of Nanog mRNA expression in human NCI-H146 cells at 5 to 10 uM incubated for 72 hrs by RT-PCR method; format: cell-based; settings: nci-h146, 72 h
[7] = test system: NCI-H1650; assay: Effect on expression of Oct4 mRNA expression in human NCI-H1650 cells at 5 to 10 uM incubated for 72 hrs by RT-PCR method; format: cell-based; settings: nci-h1650, 72 h
[8] = molecular target: Transcriptional coactivator YAP1 (Homo sapiens) (UniProt P46937); assay: Inhibition of YAP1 (unknown origin) assessed as disruption in YAP1/OCT4 interaction at 5 uM by ELISA relative to control
[9] = molecular target: Transcriptional coactivator YAP1 (Homo sapiens) (UniProt P46937); assay: Inhibition of YAP1 in human NCI-H1703 cells assessed as suppression of PDK2 mRNA expression at 5 to 10 uM incubated for 72 hrs by RT-PCR method; format: cell-based
[10] = test system: NCI-H1650; assay: Inhibition of self-renewal capacity in stem-like side-population cells of human NCI-H1650 cells assessed as reduction in number of spheres at 50 uM incubated for 10 days by sphere formation assay relative to control; format: functional; settings: NCI-H1650, 240 h
[11] = molecular target: Transcriptional coactivator YAP1 (Homo sapiens) (UniProt P46937); assay: Inhibition of YAP1 in human NCI-H1650 cells assessed as suppression of Sox2 mRNA expression at 5 to 10 uM incubated for 72 hrs by RT-PCR method; format: cell-based
[12] = molecular target: Transcriptional coactivator YAP1 (Homo sapiens) (UniProt P46937); assay: Inhibition of YAP1 in human NCI-H146 cells assessed as suppression of Sox2 mRNA expression at 5 to 10 uM incubated for 72 hrs by RT-PCR method; format: cell-based
[13] = test system: HUVEC; assay: Inhibition of angiogenic tubule formation in HUVEC at 1 to 5 uM incubated for 18 to 24 hrs; format: functional, cell-based; settings: Homo sapiens
[14] = test system: NCI-H1650; assay: Cytotoxicity in human NCI-H1650 cells assessed as reduction in cell viability at 0.5 to 20 uM incubated for 72 hrs by MTT assay; format: functional, cell-based
[15] = test system: NCI-H1703; assay: Cytotoxicity in human NCI-H1703 cells assessed as reduction in cell viability at 0.5 to 20 uM incubated for 96 hrs by MTT assay; format: functional, cell-based
[16] = molecular target: Transcriptional coactivator YAP1 (Homo sapiens) (UniProt P46937); assay: Inhibition of YAP1 in human NCI-H1703 cells assessed as suppression of Sox2 mRNA expression at 5 to 10 uM incubated for 72 hrs by RT-PCR method; format: cell-based
[17] = test system: SK-MEL-5; assay: Cytotoxicity in human SK-MEL-5 cells assessed as reduction in cell viability at 0.5 to 20 uM incubated for 72 hrs by MTT assay; format: functional, cell-based
[18] = molecular target: Transcriptional coactivator YAP1 (Homo sapiens) (UniProt P46937); assay: Inhibition of YAP1 in human NCI-H1650 cells assessed as reduction in Sox2 protein expression at 50 uM by luciferase reporter gene assay; format: cell-based
[19] = molecular target: Transcriptional coactivator YAP1 (Homo sapiens) (UniProt P46937); assay: Inhibition of YAP1 in human NCI-H146 cells assessed as suppression of HK2 mRNA expression at 5 to 10 uM incubated for 72 hrs by RT-PCR method; format: cell-based
[20] = molecular target: Transcriptional coactivator YAP1 (Homo sapiens) (UniProt P46937); assay: Inhibition of YAP1 in human NCI-H1703 cells assessed as suppression of vimentin mRNA expression at 5 to 10 uM incubated for 72 hrs by RT-PCR method; format: cell-based
[21] = test system: A549; assay: Cytotoxicity in human A549 cells assessed as reduction in cell viability at 0.5 to 20 uM incubated for 72 hrs by MTT assay; format: functional, cell-based
[22] = test system: PC-9; assay: Cytotoxicity in gefitinib resistant human PC9 cells assessed as reduction in cell viability at 1 to 20 uM by MTT assay; format: functional, cell-based
[23] = molecular target: Transcriptional coactivator YAP1 (Homo sapiens) (UniProt P46937); assay: Inhibition of YAP1 in human NCI-H1703 cells assessed as suppression of HK2 mRNA expression at 5 to 10 uM incubated for 72 hrs by RT-PCR method; format: cell-based
[24] = test system: NCI-H1975; assay: Cytotoxicity in gefitinib and erlotinib resistant human NCI-H1975 cells assessed as reduction in cell viability at 1 to 10 uM incubated for 72 hrs by MTT assay; format: functional, cell-based
[25] = test system: NCI-H226; assay: Cytotoxicity in human NCI-H226 cells assessed as reduction in cell viability at 0.5 to 20 uM incubated for 96 hrs by MTT assay; format: functional, cell-based
[26] = test system: HCC827; assay: Cytotoxicity in erlotinib-resistant human HCC827 cells assessed as reduction in cell viability at 1 to 20 uM by MTT assay; format: functional, cell-based
[27] = test system: NCI-H1703; assay: Effect on expression of Nanog mRNA expression in human NCI-H1703 cells at 5 to 10 uM incubated for 72 hrs by RT-PCR method; format: cell-based; settings: nci-h1703, 72 h
[28] = species on record: Homo sapiens; assay: Cytotoxicity in human 92-1 cells assessed as reduction in cell viability at 0.5 to 20 uM incubated for 72 hrs by MTT assay; format: functional, cell-based
[29] = test system: NCI-H1650; assay: Inhibition of self-renewal capacity in cisplatin insensitive stem-like side-population cells of human NCI-H1650 cells assessed as reduction in number of spheres at 2 uM incubated for 5 days after 7 days cisplatin exposure by sphere formation assay; format: functional, cell-based
[30] = test system: NCI-H146; assay: Inhibition of self-renewal capacity in methotrexate insensitive stem-like side-population cells of human NCI-H146 cells assessed as reduction in number of spheres at 2 uM incubated for 3 days after 7 days methotrexate exposure by sphere formation assay; format: functional
[31] = molecular target: Transcriptional coactivator YAP1 (Homo sapiens) (UniProt P46937); assay: Inhibition of YAP1 in human NCI-H1650 cells assessed as suppression of HK2 mRNA expression at 5 to 10 uM incubated for 72 hrs by RT-PCR method; format: cell-based
[32] = molecular target: Transcriptional coactivator YAP1 (Homo sapiens) (UniProt P46937); assay: Inhibition of YAP1 in human NCI-H1650 cells assessed as suppression of vimentin mRNA expression at 5 to 10 uM incubated for 72 hrs by RT-PCR method; format: cell-based
[33] = molecular target: Transcriptional coactivator YAP1 (Homo sapiens) (UniProt P46937); assay: Inhibition of YAP1 in human A549 cells assessed as disruption in YAP1/OCT4 interaction at 5 uM incubated for 72 hrs by immunoprecipitation-Westem blot assay; format: cell-based
[34] = test system: NCI-H1650; assay: Effect on expression of Nanog mRNA expression in human NCI-H1650 cells at 5 to 10 uM incubated for 72 hrs by RT-PCR method; format: cell-based; settings: nci-h1650, 72 h
[35] = molecular target: Transcriptional coactivator YAP1 (Homo sapiens) (UniProt P46937); assay: Inhibition of YAP1 in human NCI-H1650 cells assessed as suppression of fibronectin mRNA expression at 5 to 10 uM incubated for 72 hrs by RT-PCR method; format: cell-based
[36] = molecular target: Transcriptional coactivator YAP1 (Homo sapiens) (UniProt P46937); assay: Inhibition of YAP1 in human NCI-H1650 cells assessed as suppression of PDK2 mRNA expression at 5 to 10 uM incubated for 72 hrs by RT-PCR method; format: cell-based
[37] = molecular target: Transcriptional coactivator YAP1 (Homo sapiens) (UniProt P46937); assay: Inhibition of YAP1 (unknown origin) assessed as disruption in YAP1/OCT4 interaction at 50 uM by cell based assay
[38] = molecular target: Transcriptional coactivator YAP1 (Homo sapiens) (UniProt P46937); assay: Inhibition of YAP1 in human NCI-H1650 cells assessed as suppression of PD-L1 mRNA expression at 5 to 10 uM incubated for 72 hrs by RT-PCR method; format: cell-based
[39] = species on record: Homo sapiens; assay: Cytotoxicity in human WM1366 cells assessed as reduction in cell viability at 0.5 to 20 uM incubated for 72 hrs by MTT assay; format: functional, cell-based
[40] = test system: NCI-H1650; assay: Inhibition of YAP1/TEAD2 interaction in human NCI-H1650 cells assessed as suppression of CTGF mRNA expression at 5 to 10 uM incubated for 72 hrs by RT-PCR method; format: cell-based
[41] = molecular target: Transcriptional coactivator YAP1 (Homo sapiens) (UniProt P46937); assay: Inhibition of YAP1 in human NCI-H1650 cells assessed as disruption in YAP1/OCT4 interaction at 5 uM incubated for 72 hrs by immunoprecipitation-Westem blot assay; format: cell-based
[42] = test system: NCI-H1703; assay: Effect on expression of Oct4 mRNA expression in human NCI-H1703 cells at 5 to 10 uM incubated for 72 hrs by RT-PCR method; format: cell-based; settings: nci-h1703, 72 h
[43] = test system: NCI-H1650; assay: Inhibition of self-renewal capacity in stem-like side-population cells of human NCI-H1650 cells assessed as reduction in number of spheres at 1 to 20 uM incubated for 10 days by sphere formation assay; format: functional, cell-based
[44] = Lipophilicity, logP of the compound; format: physicochemical; settings: octanol/water
[45] = molecular target: Transcriptional coactivator YAP1 (Homo sapiens) (UniProt P46937); assay: Inhibition of YAP1 (unknown origin) assessed as disruption in YAP1/OCT4 interaction at 10 uM by ELISA relative to control

O=C(CC1CCN(C(=O)CCc2ccccc2)CC1)N[C@@H](Cc1ccc(OCc2ccccc2)cc1)C(=O)O
Activity [1]: Non-Toxic
inhibition [2]: Active
inhibition [3]: Active
inhibition [4]: inactive
inhibition [5]: Active
Activity [6]: Non-Toxic
Activity [7]: Non-Toxic
inhibition [8]: 95%
inhibition [9]: Active
inhibition at 50 µM [10]: 72.6%
inhibition [11]: Active
inhibition [12]: Active
inhibition [13]: Active
Activity [14]: Active
Activity [15]: Active
inhibition [16]: Active
Activity [17]: Active
inhibition [18]: 85.3%
inhibition [19]: Active
inhibition [20]: Active
Activity [21]: Active
Activity [22]: Active
inhibition [23]: Active
Activity [24]: Active
Activity [25]: Active
Activity [26]: Active
Activity [27]: Non-Toxic
Activity [28]: Active
inhibition [29]: Active
inhibition [30]: Active
inhibition [31]: Active
inhibition [32]: Active
inhibition [33]: Active
Activity [34]: Non-Toxic
inhibition [35]: Active
inhibition [36]: Active
inhibition [37]: > 85%
inhibition [38]: Active
Activity [39]: Active
inhibition [40]: inactive
inhibition [41]: Active
Activity [42]: Non-Toxic

COC(=O)[C@H](Cc1ccc(OCc2ccccc2)cc1)NC(=O)CC1CCN(C(=O)OC(C)(C)C)CC1
inhibition [8]: 72.6%
inhibition [43]: Active
logP [44]: 3.9 to 3.94
inhibition [45]: 80.8%
inhibition [37]: > 75%
